The values below come from PubChem BioAssay AID1919017 (Molecular Pharmacology Branch, DTP, NCI, 2023).

Each structure is given as a SMILES string. Values joined by “and” are separate entries in the source; they are usually repeats but may differ in a detail not shown here. Identical values can stand only once.

The subject of the experiment is SW1271 complex spheroids with HUVEC/MSC, growth, % test/control. Kind of experiment: Anticancer human tumor SW1271 cell line growth inhibition [AhR].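 As to all read-outs here: spheroids exposed to agents for 7 days before readout.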 To be noted: for viability, T/C: stronger effect = lower value; for IC50: curve of compound. The text has this: Multicellular complex tumor spheroid response to aryl hydrocarbon receptor antagonists in combination with a variety of drugs and investigational agents in selected tumor cell lines
The current study was undertaken to assess response to aryl hydrocarbon receptor antagonists in combination with standard-of-care drugs and investigational agents in solid tumor complex spheroid models. Complex spheroids include a stromal component modeled by human endothelial cells (HUVEC) and fibroblasts modeled by human mesenchymal stem cells (MSCs). The concentration ranges selected for each drug and investigational agent were based upon clinically achievable concentrations if the clinical Cmax of the agent was known.
Compounds. The drugs and investigational agents: BAY 2416964 (NSC825713), GNF351 (NSC835774), CH-223191 (NSC835775), CPI-455 (NSC825282), aza-TdCyd (NSC777586), decitabine (NSC127716), belinostat (NSC758774), entinostat (NSC756642), pevonedistat (NSC761192), tazemetostat (NSC777109), talazoparib (NSC765396), olaparib (NSC753686), selinexor (NSC780203), nedisertib (M3814, NSC802822), bortezomib (NSC756655), venetoclax (NSC766270), doxorubicin (NSC123127), elimusertib (BAY189344, NSC800525), ceralasertib (AZD6738, NSC777638), TAK-243 (NSC785004), alisertib (NSC759677), etoposide (NSC141540), topotecan (NSC609699), eribulin (NSC707389), gemcitabine (NSC613327), carboplatin (NSC241240), cisplatin (NSC119875), and SN-38 (NSC673596) were obtained from the National Cancer Institute (NCI) Developmental Therapeutics Program Chemical Repository (32). The FDA-approved anticancer drug set is available from the Developmental Therapeutics Program at https://dtp.cancer.gov/organization/dscb/obtaining/available plates.htm. […] The stock solutions were prepared in dimethyl sulfoxide (DMSO, Sigma-Aldrich, St. Louis, MO, cat. D2650), except for the platinum compounds which were prepared in saline (Quality Biological, Gaithersburg, MD, cat. 114-055-101), at 800-fold the tested concentration and stored at -70 degrees C prior to their use. All drugs and investigational agents were tested over a range starting from a high concentration at or near the clinical Cmax and decreasing in half-log increments. If the clinical Cmax for an agent had not been determined, the highest concentration tested was 10 microM (Table 1).
Cell Culture. All cells were maintained in an incubator at 37 degrees C and 5% CO2 with 95% humidity. The PDC lines were cultured according to standard operating procedures established by the NCI PDMR (https://pdmr.cancer.gov). Briefly, all PDCs were thawed and cultured in Matrigel-coated flasks prepared with a working solution of 1X Ham's F-12 nutrient mix, without supplementation (Invitrogen, Waltham, MA, cat. 11765054), 100 U/mL penicillin-streptomycin (Invitrogen, cat. 15140122), and 2.5% Matrigel (Corning Inc., Corning, NY, cat. 354248) for the first three passages. All PDCs were cultured in complete DMEM/F-12 media containing advanced DMEM/F-12 (Invitrogen, cat. 12634028), 4.9% defined fetal bovine serum, heat inactivated (HyClone Laboratories Inc., Logan, UT, cat. SH30070.03HI), 389 ng/mL hydrocortisone (Sigma-Aldrich, cat. H4001), 9.7 ng/mL human EGF recombinant protein (Invitrogen, cat. PHG0313), 23.4 microg/mL adenine (Sigma-Aldrich, cat. A2786), 97.3 U/mL penicillin-streptomycin (Invitrogen, cat. 15140122), 1.9 mM L-glutamine (Invitrogen, cat. 25030081), and 9.7 microM Y-27632 dihydrochloride (Tocris Bioscience, Bristol, United Kingdom, cat. 1254). The PDCs were cultured in complete DMEM/F12 media without 10 microM Y-27632 dihydrochloride for at least two passages prior to the screen. The established cell lines NCI-H1341 and […] were cultured in DMEM/F-12, HEPES (Invitrogen, cat. 11330032), 5% defined fetal bovine serum (HyClone Laboratories Inc., cat. SH30070.03), ITS premix universal culture supplement [insulin (5 microg/mL), transferrin (5 microg/mL), and selenious acid (5 ng/mL)] […]

Turning to `CC(C)CC(NC(=O)C(Cc1ccccc1)NC(=O)c1cnccn1)B(O)O` (stereo unspecified), the IC50 is 5.23 nM and 5.07 nM and 4.06 nM. Moreover, where the note is “compound 0.000949 µM”, the viability, T/C is 97.1% and 109% and 95.8%. Under “compound 0.003 µM”, the viability, T/C was 89.3% and 86% and 67.3%. The viability, T/C (compound 0.00949 µM) was 7.81% and 7.15% and 1.46%. Further, the viability, T/C (compound 0.03 µM) is 0.75% and 0.78% and 0.59%. Besides, the viability, T/C (compound 0.0949 µM) was 0.47% and 0.58% and 0.43%. Besides, the viability, T/C (compound 0.3 µM) is 0.64% and 0.89% and 0.44%.
Regarding `CC1(C)CCC(CN2CCN(c3ccc(C(=O)NS(=O)(=O)c4ccc(NCC5CCOCC5)c([N+](=O)[O-])c4)c(Oc4cnc5[nH]ccc5c4)c3)CC2)=C(c2ccc(Cl)cc2)C1`, the IC50 is greater than 10000 nM. For the same compound, where the note is “compound 0.0316 µM”, the viability, T/C is 93.6% and 94.9% and 90.9%. Moreover, the viability, T/C (compound 0.1 µM) was 107% and 101% and 97.1%. Also, the viability, T/C (compound 0.316 µM) was 104% and 75% and 108%. Further, under “compound 1 µM”, the viability, T/C is 92.9% and 102% and 94.2%. Further, for the setting “compound 3.16 µM”, the viability, T/C was 101% and 110% and 105%. Further, the viability, T/C (compound 10 µM) was 88% and 72.9% and 74.4%.
Take `CC1COCCN1c1cc(-c2ccnn2C)c2ccnc(-c3ccn[nH]3)c2n1` (stereo unspecified): the IC50 was 294 nM and > 1000 nM and 712 nM. Further, the viability, T/C (compound 0.00316 µM) was 95.8% and 99.2% and 91%. Also, where the note is “compound 0.01 µM”, the viability, T/C was 90.6% and 102% and 103%. Moreover, the viability, T/C (compound 0.0316 µM) is 76.6% and 71.1% and 85.7%. The viability, T/C (compound 0.1 µM) was 58.4% and 65.3% and 70.1%. Also, the viability, T/C (compound 0.316 µM) was 51.8% and 61.9% and 60.3%. Further, the viability, T/C (compound 1 µM) was 43.8% and 46.2% and 45.5%.
For the compound `CCN(c1cc(-c2ccc(CN3CCOCC3)cc2)cc(C(=O)NCc2c(C)cc(C)[nH]c2=O)c1C)C1CCOCC1`, the IC50 was greater than 3000 nM. For the same compound, under “compound 0.00949 µM”, the viability, T/C was 104% and 90.3% and 94.7%. Further, the viability, T/C (compound 0.03 µM) was 96.7% and 99.1% and 104%. The viability, T/C (compound 0.0949 µM) was 86.3% and 110% and 120%. Moreover, the viability, T/C (compound 0.3 µM) was 93.2% and 124% and 111%. Further, under “compound 0.949 µM”, the viability, T/C was 90.6% and 106% and 125%. Moreover, the viability, T/C (compound 3 µM) was 102% and 115% and 107%.
Regarding `CC[C@@]1(O)C(=O)OCc2c1cc1n(c2=O)Cc2cc3c(CN(C)C)c(O)ccc3nc2-1`, the IC50 is > 100 nM and 75.4 nM. Also, the viability, T/C (compound 0.000316 µM) is 105% and 80.9% and 102%. Besides, the viability, T/C (compound 0.001 µM) is 108% and 64.1% and 91.1%. Besides, the viability, T/C (compound 0.00316 µM) is 80.9% and 87% and 83.4%. The viability, T/C (compound 0.01 µM) was 91.5% and 70% and 96.8%. Under “compound 0.0316 µM”, the viability, T/C was 89% and 65% and 78.6%. Moreover, where the note is “compound 0.1 µM”, the viability, T/C is 74.6% and 45.2% and 70%.
For `CCc1c2c(nc3ccc(O)cc13)-c1cc3c(c(=O)n1C2)COC(=O)[C@]3(O)CC`, the IC50 is 177 nM and > 300 nM. For the same compound, the viability, T/C (compound 0.000949 µM) was 78.1% and 88.3% and 86.2%. In addition, for the setting “compound 0.003 µM”, the viability, T/C was 79.8% and 97.7% and 79%. Under “compound 0.00949 µM”, the viability, T/C is 64.6% and 71.7% and 61.4%. Moreover, the viability, T/C (compound 0.03 µM) is 67% and 58.3% and 59.9%. The viability, T/C (compound 0.0949 µM) is 55.6% and 56% and 60.6%. In addition, under “compound 0.3 µM”, the viability, T/C was 44.9% and 53.3% and 49.2%.
With `COc1cc(C2c3cc4c(cc3C(OC3OC5COC(C)OC5C(O)C3O)C3COC(=O)C23)OCO4)cc(OC)c1O` (stereo unspecified), the viability, T/C reads like this: (compound 0.0316 µM) 81.3% and 81.6% and 96.4%; (compound 0.1 µM) 82.5% and 92.6% and 64.2%; (compound 0.316 µM) 63.9% and 54.3% and 41.1%; (compound 1 µM) 61.9% and 51% and 46.1%; (compound 3.16 µM) 60.1% and 72.8% and 44.8%; (compound 10 µM) 50.8% and 45.9% and 39.2%.
Consider `COc1cc(Nc2ncc3c(n2)-c2ccc(Cl)cc2C(c2c(F)cccc2OC)=NC3)ccc1C(=O)O`, for which the IC50 is 7650 nM and > 10000 nM. Also, the viability, T/C (compound 0.0316 µM) is 80.7% and 65.3% and 70.4%. Further, where the note is “compound 0.1 µM”, the viability, T/C was 91.2% and 67.1% and 74.3%. For the same compound, the viability, T/C (compound 0.316 µM) is 92.5% and 67% and 66.7%. Besides, the viability, T/C (compound 1 µM) was 83.3% and 64.7% and 68.1%. In addition, the viability, T/C (compound 3.16 µM) is 72.4% and 61.5% and 57.6%. Besides, the viability, T/C (compound 10 µM) was 43.3% and 49% and 51.4%.
As for `COc1cccc2c1C(=O)c1c(O)c3c(c(O)c1C2=O)CC(O)(C(=O)CO)CC3OC1CC(N)C(O)C(C)O1` (stereo unspecified), the viability, T/C is 66.6% and 50.3% and 72.6% (compound 0.0316 µM); 69.8% and 46.8% and 56.1% (compound 0.1 µM); 53% and 29.6% and 40.6% (compound 0.316 µM); 7.45% and 5.09% and 6.04% (compound 1 µM); 4.63% and 2.92% and 2.03% (compound 3.16 µM); 13.6% and 3.38% and 3.85% (compound 10 µM).
